The target in one experiment is porcine TASK-1 (pTASK-1) (Sus scrofa, UniProt A0A286ZMZ4). The experiment in a line: two-electrode voltage clamp in Xenopus oocytes at […]. It counts as cell-based. To be noted: read-out: % of control current at 100 μmol/L. On the technique in general: Two-electrode voltage clamp holds a large cell at a set potential and records current.
Experiment [1] concerns the target human TASK-1 (hTASK-1, hK2P3.1) (Homo sapiens, UniProt O14649). The description is as above. It counts as cell-based. To be noted: read-out: % of control current at 100 μmol/L.

Here are results for one molecule from PMC7660874 (Journal of the American Heart Association: Cardiovascular …, 2020).

The structures appear in SMILES notation.

porcine TASK-1 (pTASK-1), sequence (A0A286ZMZ4 1-401): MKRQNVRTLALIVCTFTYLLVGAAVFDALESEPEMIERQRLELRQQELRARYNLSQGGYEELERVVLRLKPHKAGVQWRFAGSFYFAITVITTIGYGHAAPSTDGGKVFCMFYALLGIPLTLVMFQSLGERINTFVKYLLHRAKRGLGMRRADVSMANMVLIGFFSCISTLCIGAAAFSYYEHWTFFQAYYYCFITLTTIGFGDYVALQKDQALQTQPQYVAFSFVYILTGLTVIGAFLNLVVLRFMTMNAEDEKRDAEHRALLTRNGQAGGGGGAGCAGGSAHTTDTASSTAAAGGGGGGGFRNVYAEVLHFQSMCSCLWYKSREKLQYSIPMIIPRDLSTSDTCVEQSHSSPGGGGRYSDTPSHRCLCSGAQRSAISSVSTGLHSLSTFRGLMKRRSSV
human TASK-1 (hTASK-1, hK2P3.1), sequence (O14649 whole entry): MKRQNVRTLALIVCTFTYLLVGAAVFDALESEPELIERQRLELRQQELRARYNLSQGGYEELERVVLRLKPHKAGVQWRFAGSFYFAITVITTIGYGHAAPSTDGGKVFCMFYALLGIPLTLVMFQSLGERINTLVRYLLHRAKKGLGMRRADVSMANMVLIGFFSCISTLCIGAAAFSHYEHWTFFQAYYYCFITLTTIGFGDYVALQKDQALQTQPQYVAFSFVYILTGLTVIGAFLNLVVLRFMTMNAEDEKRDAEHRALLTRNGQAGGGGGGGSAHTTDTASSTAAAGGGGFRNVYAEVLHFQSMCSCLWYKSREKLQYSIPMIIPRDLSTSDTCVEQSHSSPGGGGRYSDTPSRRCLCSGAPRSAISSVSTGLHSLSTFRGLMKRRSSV

For the molecule `CCCCS(=O)(=O)Nc1ccccc1C(=O)N[C@H](CC)c1ccc(OC)nc1` [A293, 2‐(butylsulfonylamino)‐N‐[(1R)‐1‐(6‐methoxy‐3‐pyridyl)propyl]‐benzamide], the remaining activity at 100 µM at porcine TASK-1 (pTASK-1) was determined as 28 ± 6.8%; in experiment [1], 21.3 ± 8.7%.
